Earlier results, collected in patent publication US20140128469A1, “[…]-BUTYL BUMETANIDE” (CONCERT PHARMACEUTICALS INC., priority 2011, published 2014).

Legend:
[1] = preclinical models
[2] = preclinical toxicology studies, see WO 2010/085352
[3] = target: T1, Na+K+2Cl— co-transporter (NKCC2) (Homo sapiens, UniProt Q13621)
T1 sequence (Q13621 1-1099): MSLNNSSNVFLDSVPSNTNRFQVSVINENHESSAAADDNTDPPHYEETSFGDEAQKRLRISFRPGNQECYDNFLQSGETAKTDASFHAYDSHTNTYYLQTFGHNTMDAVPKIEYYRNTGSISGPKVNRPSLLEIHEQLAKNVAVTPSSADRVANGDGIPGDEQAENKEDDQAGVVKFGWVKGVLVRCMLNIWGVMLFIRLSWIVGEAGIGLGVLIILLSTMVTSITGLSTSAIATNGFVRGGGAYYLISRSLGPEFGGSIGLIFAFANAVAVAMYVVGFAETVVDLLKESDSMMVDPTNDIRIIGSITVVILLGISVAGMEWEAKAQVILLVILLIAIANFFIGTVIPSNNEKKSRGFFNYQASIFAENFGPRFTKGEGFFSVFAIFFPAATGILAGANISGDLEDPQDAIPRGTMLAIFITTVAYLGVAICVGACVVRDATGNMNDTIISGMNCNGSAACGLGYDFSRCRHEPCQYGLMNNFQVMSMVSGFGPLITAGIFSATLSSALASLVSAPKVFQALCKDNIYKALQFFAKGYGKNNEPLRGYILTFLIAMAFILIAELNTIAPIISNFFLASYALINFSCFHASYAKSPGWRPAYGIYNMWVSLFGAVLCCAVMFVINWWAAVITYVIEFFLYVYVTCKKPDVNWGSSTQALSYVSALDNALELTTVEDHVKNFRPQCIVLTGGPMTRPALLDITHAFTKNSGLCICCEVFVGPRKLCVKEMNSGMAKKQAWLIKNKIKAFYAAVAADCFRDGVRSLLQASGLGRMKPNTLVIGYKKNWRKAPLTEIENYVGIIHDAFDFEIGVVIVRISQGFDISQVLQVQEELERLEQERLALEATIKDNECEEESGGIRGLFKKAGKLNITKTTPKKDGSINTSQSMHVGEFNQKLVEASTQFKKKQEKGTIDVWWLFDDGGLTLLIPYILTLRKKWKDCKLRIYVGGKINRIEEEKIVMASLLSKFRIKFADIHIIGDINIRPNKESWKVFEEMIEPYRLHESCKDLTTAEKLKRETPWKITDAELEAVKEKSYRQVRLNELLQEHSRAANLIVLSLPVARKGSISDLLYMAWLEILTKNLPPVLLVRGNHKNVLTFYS

[4] = tested on: models of neuropathic and nociceptive pain; settings: in vivo
models of migraine = settings: in vivo
[5] = target: T2, Na+K+2Cl— co-transporter (NKCC1) (Homo sapiens, UniProt P55011)
T2 sequence (P55011 1-1212): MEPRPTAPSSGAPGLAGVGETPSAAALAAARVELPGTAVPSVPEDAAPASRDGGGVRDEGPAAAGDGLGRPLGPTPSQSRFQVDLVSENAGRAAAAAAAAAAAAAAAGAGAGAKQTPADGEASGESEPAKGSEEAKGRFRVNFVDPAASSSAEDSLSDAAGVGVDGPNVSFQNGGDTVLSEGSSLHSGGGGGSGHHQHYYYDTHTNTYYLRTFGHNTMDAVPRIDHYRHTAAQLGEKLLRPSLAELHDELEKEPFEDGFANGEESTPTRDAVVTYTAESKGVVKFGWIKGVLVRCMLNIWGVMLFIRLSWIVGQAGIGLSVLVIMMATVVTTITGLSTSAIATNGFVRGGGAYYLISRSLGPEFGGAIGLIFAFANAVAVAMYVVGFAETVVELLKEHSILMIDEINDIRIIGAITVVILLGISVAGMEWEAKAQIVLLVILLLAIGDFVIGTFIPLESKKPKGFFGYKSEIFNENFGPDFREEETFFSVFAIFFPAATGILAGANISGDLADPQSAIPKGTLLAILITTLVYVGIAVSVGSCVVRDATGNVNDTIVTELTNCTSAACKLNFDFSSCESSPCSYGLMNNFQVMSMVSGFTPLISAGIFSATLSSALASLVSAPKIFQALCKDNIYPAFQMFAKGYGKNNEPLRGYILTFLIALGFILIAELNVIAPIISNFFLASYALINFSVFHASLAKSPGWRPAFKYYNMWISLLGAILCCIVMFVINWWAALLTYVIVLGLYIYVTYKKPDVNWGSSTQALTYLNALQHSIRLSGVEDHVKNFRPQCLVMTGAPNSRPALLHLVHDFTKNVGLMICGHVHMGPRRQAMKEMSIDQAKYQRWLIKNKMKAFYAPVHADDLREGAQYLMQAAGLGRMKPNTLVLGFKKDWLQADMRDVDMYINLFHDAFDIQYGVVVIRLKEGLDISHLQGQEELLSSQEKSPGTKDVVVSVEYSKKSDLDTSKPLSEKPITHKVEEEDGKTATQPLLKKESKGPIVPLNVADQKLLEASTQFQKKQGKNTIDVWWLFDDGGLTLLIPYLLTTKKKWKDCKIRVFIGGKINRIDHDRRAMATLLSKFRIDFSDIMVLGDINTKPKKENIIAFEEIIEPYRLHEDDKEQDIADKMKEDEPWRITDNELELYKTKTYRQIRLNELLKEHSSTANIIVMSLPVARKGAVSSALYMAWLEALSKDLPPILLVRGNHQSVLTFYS

## CCCCN(CCCC)c1cc(C(=O)O)cc(S(N)(=O)=O)c1Oc1ccccc1 [N-butyl bumetanide]
Models of epilepsy; epilepsy models resistant to currently-marketed anti-epileptic drugs
  amelioration of seizures: effective in ameliorating seizures
Models of epilepsy; in vivo
  efficacy in models of epilepsy: effective
[1]
  diuresis: does not cause diuresis
[2]
  therapeutic safety margin: large therapeutic safety margin
[3]
  action on NKCC2: does not act on
[4]
  efficacy in models of neuropathic and nociceptive pain: effective
GABAA
  GABAA modulation: subtype-selective GABAA modulatory actions
Models of migraine
  efficacy in models of migraine: effective
[5]
  action on NKCC1: does not act on
